Measurements: patent US20200214999A1, “Method for Treating an Inflammatory Disorder” (Allianz Pharmascience Ltd., priority 2019, published 2020)

Key:
[1] = tested on: GMDC (mouse bone marrow derived myeloid dendritic cells); experiment: MTS assay for cell viability (cytotoxicity) on GMDC; type: cell-based; settings: 24 hours, 0 μM to 10 μM tested
Description: (§1) Cells were treated with different concentration of ASC-J9 and ASC-JM17 for 24 hours. Viability of cells were measured by MTS Assays. *: p<0.05.
(§2) MTS assay for cell viability: The cell toxicity of test articles is measured by MTS assay. The MTS assay is based on the reduction of the MTS tetrazolium compound by viable cells to generate a colored formazan dye that is soluble in cell culture media. This conversion is thought to be carried out by NAD(P)H-dependent dehydrogenase enzymes in metabolically active cells. The formazan dye is quantified by measuring the absorbance at 490-500 nm. The non-toxic dose will be applied for further assays.
(§3) Cell culture: Mouse bone marrow derived dendritic cells (BMDC) and bone marrow derived macrophages (BMDM) were generated from mouse bone marrow cells. Briefly, dendritic cells can be generated by two induction procedures. Bone marrow cells can be induced into myeloid DCs called GMDC with GM-CSF and IL-4 for 10 days, while a mixed types of DCs including myeloid and plasmacytoid DCs called Fit3DC can be generated by induction with fit3-ligand for 10 days. […]
(§4) The goal of this example is to evaluate the anti-inflammatory abilities of J9 and JM17 on psoriatic inflammation in vitro and in vivo. To find the safety doses of J9 and JM17 for in vitro study, cytotoxicity of J9 and JM17 were measured by MTS assay. […]

[2] = tested on: Fit3DC (mouse bone marrow derived dendritic cells, fit3-ligand induced); experiment: MTS assay for cell viability (cytotoxicity) on Fit3DC; type: cell-based; settings: 24 hours, 0 μM to 10 μM tested
Description: as §1, §2, §3, §4

[3] = tested on: inflammatory cytokine induced cytokine expression in dendritic cells (GMDC); experiment: TNF-α or IL-1β induced cytokine expression in GMDC by RT-qPCR; type: cell-based, mouse; settings: GMDC pre-treated 1 hr, then TNF-α or IL-1β for 24 hrs
Description: Dendritic cells were pre-treated with different concentration of ASC-J9 and ASC-JM17 for 1 hour and then inflammatory cytokine TNF-α or IL-1β were added for 24 hours. Expression of mouse cytokine genes was measured by RT-qPCR. *: p<0.05; ns: not significant.
(§5) Cell culture: Mouse bone marrow derived dendritic cells (BMDC) and bone marrow derived macrophages (BMDM) were generated from mouse bone marrow cells. Briefly, dendritic cells can be generated by two induction procedures. Bone marrow cells can be induced into myeloid DCs called GMDC with GM-CSF and IL-4 for 10 days, while a mixed types of DCs including myeloid and plasmacytoid DCs called Fit3DC can be generated by induction with fit3-ligand for 10 days. To generate BMDMs, bone marrow cells are induced into BMDM by 30% L929 conditioned medium for 7 days.
(§6) Analysis of gene expression: Total RNA was purified from cells using Isol-RNA Lysis Reagent (5 PRIME GmbH, Hilden, Germany) according to the manufacturer's protocol. Reverse-transcription was performed using the QuantiNova® Reverse Transcription Kit (QIAGEN™) and oligo-dT primers for first-strand cDNA synthesis. Quantitative PCR was performed with gene-specific primers (see appendix) using LightCycler480 detection system (Roche Diagnostics GmbH, Penzberg, Germany) and QuantiNova® SYBR Green RT-PCR Kit for gene expression analysis. The level of mRNA expression was normalized to that of GAPDH.
(§7) Anti-inflammatory effects of J9 and JM17 for inflammatory cytokine including TNF-α, IL-1β, IL-17A, IL-22, IL-23 and IL-31 induced by TLR ligand in various immune cells including mouse splenocytes, mouse bone marrow derived dendritic cells and bone marrow derived macrophages were analyzed by quantitative PCR (RT-qPCR).
To evaluate the anti-inflammatory effects of J9 and JM17 in vitro, GMDC were pre-treated with J9 and JM17 for 1 hr and stimulated with the inflammatory cytokine, TNF-α or IL-1β[…]for 24 hrs. Expression of cytokines including TNF-α, IL-1β, IL-17A, IL-22, IL-23, and IL-31 were measured by RT-qPCR. […] Expression of IL-17A was not induced by TNF-α or IL-1β. […]

[4] = tested on: R848 induced cytokine expression in mouse splenocytes; experiment: R848 induced cytokine expression in mouse splenocytes by RT-qPCR; type: cell-based; settings: 1 μM pre-treatment 1 hr, R848 6 hrs
Description: Mouse splenocytes were pre-treated with 1 μM of ASC-J9 or ASC-JM17 for 1 hour and then TLR ligand, R848 were added for 6 hours. Expression of mouse cytokine genes were measured by RT-qPCR. *: p<0.01.
as §6, §7
(§8) We also evaluate anti-inflammatory effects of J9 and JM17 on mouse splenocytes and bone marrow derived macrophages. Mouse splenocytes were pre-treated with J9 and JM17 for 1 hr and TLR ligand, R848, were then added for 6 hrs.

[5] = tested on: R848 induced cytokine expression in mouse bone marrow derived macrophages (BMDM); experiment: R848 induced cytokine expression in bone marrow derived macrophages by RT-qPCR; type: cell-based; settings: 1 μM pre-treatment 1 hour, R848 6 hours
Description: Macrophages were pre-treated with 1 μM of ASC-J9 or ASC-JM17 for 1 hour and then TLR ligand, R848 were added for 6 hours. Expression of mouse cytokine genes were measured by RT-qPCR. *: p<0.01; ns: not significant.
as §5, §6, §7, §8

[6] = tested on: IMQ-induced psoriatic inflammation; experiment: IMQ-induced psoriatic inflammation model, #1 animal experiment (10 days); type: in vivo, Balb/c mice; settings: for erythema, scaling, and thickness in lesional skins: photographic observation
Description: Balb/c mice were topical treated with imiquimod (IMQ) and with control cream, ASC-J9 or clobetasol for consecutive 10 days. (A) Schematic schedule was illustrated. Photographic observations in each group were shown at day 0 (B), day 5 (C) and day 10 (D).
Balb/c mice were topical treated with imiquimod (IMQ) and with control cream, ASC-J9 or clobetasol for consecutive 10 days. (A) The severity of inflammatory responses on the skin was assessed on the basis of the Psoriasis Area Severity Index. (B) Ten days after treatment, the mice were sacrificed and their skin thickness was measured with vernier caliper to assess the severity of the psoriatic responses. (C) Expession of cytokine genes in mouse skin after 10 day treatment by RT-qPCR. (D) H&E staining of lesional skin after 10 day treatment. *: p<0.05; **: […]; ns: not significant.
(§9) Animal Model of Psoriatic Inflammation: 30 or 40 mg of 5% IMQ gel (Aldara™) was smeared on the shaved backs of Balb/c mice each day for 5 or 10 days. The severity of the skin's inflammatory response was assessed on the basis of the Psoriasis Area Severity Index (PASI) as described. Briefly, the three parameters of psoriasis responses—erythema, scaling, and skin thickness—were scored independently on a scale from 0 to 4 as follows: 0: none; 1: slight; 2: moderate; 3: marked; and 4: very marked. By adding the scores from these three parameters, the severity of the response was measured using the cumulative score from 0 to 12. At the end of the experiment, the mice were sacrificed for measurement of skin thickness with vernier caliper. Group Assignments and Dose Levels of animal studies are described as follows:
(§10) The mice were (1) photoed for evaluation and analyzed (2) Psoriasis Area Severity Index (PASI); (3) Skin thickness measurement. We selected the sample in experiment with better inhibitory effect for further analysis by accessing: (1) H&E staining and (2) inflammatory gene expression including TNF-α, IL-1β, IL-17A, IL-22, IL-23 and IL-31 in lesional tissue by quantitative PCR (RT-qPCR).
We further evaluated anti-inflammatory effects of J9 on psoriatic inflammation in vivo. First, we compared the effects of J9 control cream, J9 cream and clobetasol on inhibition of IMQ-induced psoriatic inflammation in a 10-day experimental schedule (FIG. 5A). Mice of each group were photoed for evaluation at day 0, day 5 and day 10 (FIGS. 5B, 5C and 5D). […] In control cream group, there were no inhibitory effects observed (FIG. 5B). […] These phenomena were reached most severe at day 5 (FIGS. 5 and 6A). […] The skin thickness were measured at day 10. […] Expression of cytokine genes including TNF-α, IL-1β, IL-17A, IL-22, IL-23 and IL-31 in lesional skin were also analyzed. Of these cytokines, we observed that J9 attenuated IMQ-induced IL-1β expression at day 10 (FIG. 6C).

[7] = tested on: IMQ-induced psoriatic inflammation; experiment: IMQ-induced psoriatic inflammation model, #2 animal experiment (5 days); type: in vivo, Balb/c mice; settings: for IMQ-induced inflammation: photographic observation
Description: Balb/c mice were topical treated with imiquimod (IMQ) and with control cream, different dose of ASC-J9 for consecutive 5 days. (A) Schematic schedule was illustrated. Photographic observations in each group were shown at day 0 (B), day 5 (C).
Balb/c mice were topical treated with imiquimod (IMQ) and with control cream, different dose of ASC-J9 for consecutive 5 days. (A) The severity of inflammatory responses on the skin was assessed on the basis of the Psoriasis Area Severity Index. (B) Five days after treatment, the mice were sacrificed and their skin thickness was measured with vernier caliper to assess the severity of the psoriatic responses. […]
as §9, §10
To further understand the therapeutic effects of different concentration of J9 cream, 0.5% J9 (2 mg/cm^2 and 6 mg/cm^2), 0.1% J9 (10 mg/cm^2) and 0.05% J9 cream(2 mg/cm^2) were used to evaluate therapeutic effects on IMQ-induced psoriatic inflammation in a five-day experimental schedule (FIG. 7A). Mice of each group were photoed for evaluation at day 0 and day 5 (FIGS. 7B and 7C). […] PASI score, skin thickness and gene expression of lesional skin were also measured.

[8] = tested on: artemin (ARTN) expression in keloid patient derived fibroblasts 256K and 268K; experiment: ARTN mRNA expression in keloid patient derived fibroblasts by qPCR; type: cell-based, human; settings: keloid fibroblasts 256K and 268K, 24 hr treatment, mRNA by qPCR vs GAPDH
Description: Two keloid patient derived fibroblasts named 256K and 268K were treated with ASC-J9 for 24 hr. The cells were then harvested and mRNA expression of ARTN and GAPDH were determined by qPCR.

In the case of `COc1ccc(/C=C/C(=O)CC(=O)/C=C/c2ccc(OC)c(OC)c2)cc1OC` [ASC-J9], the “non-toxic doses (cells resistant up to)” value [1] was “up to 10 μM”, the “non-toxic doses (cells resistant up to)” value [2] was “up to 10 μM” and the “TNF-α or IL-1β induced IL-1β expression” value [3] was “significantly inhibit”. The “TNF-α or IL-1β induced IL-22 expression” value [3] was “did not attenuate”, the “TNF-α or IL-1β induced TNF-α expression” value [3] was “significantly inhibit” and the “R848 induced IL-1β expression” value [4] was “significantly inhibited”. The “R848 induced IL-17A expression” value [4] was “significantly inhibited”, the “R848 induced IL-22 expression” value [4] was “significantly inhibited” and the “R848 induced TNF-α expression” value [4] was “significantly inhibited”. The “R848-induced expression of IL-1β” value [5] was “inhibited”, the “R848-induced expression of IL-17A” value [5] was “inhibited” and the “R848-induced expression of IL-22” value [5] was “inhibited”. For the same compound, the “R848-induced expression of IL-31” value [5] was “inhibited”, the “R848-induced expression of TNF-α” value [5] was “inhibited” and the “erythema, scaling, and thickness in lesional skins” value ([6]; 0.5% J9 cream 2 mg/cm^2 topical daily, after 5 day treatment) was “significantly reduced”. The “erythema, scaling, and thickness in lesional skins” value ([6]; 0.5% J9 cream 10 mg/cm^2 topical daily, after 5 day treatment) was “significantly reduced”, the “IMQ-induced increase of skin thickness” value ([6]; J9 2 mg/cm^2, measured at day 10 with vernier caliper) was “significantly inhibited” and the “Psoriasis Area Severity Index (PASI) score” value ([6]; J9 2 mg/cm^2 topical daily, at day 3 to day 10) was “significantly decreased”. The “IMQ-induced increase of skin thickness” value ([6]; J9 10 mg/cm^2, measured at day 10 with vernier caliper) was “significantly inhibited”, the “Psoriasis Area Severity Index (PASI) score” value ([6]; J9 10 mg/cm^2 topical daily, at day 4 to day 6) was “significantly decreased” and the “IMQ-induced IL-1β expression in lesional skin” value ([6]; at day 10, RT-qPCR) was “attenuated”. For the same compound, the “thickeness of the epidermis and dermis and keratinocyte proliferation in epidermis and inflammation (H&E staining)” value ([6]; lesional skin after 10 day treatment) was “reduced”, the “IMQ-induced expression of IL-1(3 in lesional skin)” value ([7]; 0.1% J9 10 mg/cm^2, RT-qPCR) was “inhibited” and the “IMQ-induced expression of TNF-a in lesional skin” value ([7]; 0.1% J9 10 mg/cm^2, RT-qPCR) was “inhibited”. The IMQ-induced inflammation ([7]; 0.1% J9 10 mg/cm^2, after 5 day treatment) was “inhibited”, the PASI scores ([7]; 0.1% J9 10 mg/cm^2, at day 4 to day 5) was “marked decreased” and the “IMQ-induced expression of IL-1(3 in lesional skin)” value ([7]; 0.5% J9 2 mg/cm^2, RT-qPCR) was “inhibited”. For the same compound, the “IMQ-induced expression of TNF-a in lesional skin” value ([7]; 0.5% J9 2 mg/cm^2, RT-qPCR) was “inhibited”, the IMQ-induced inflammation ([7]; 0.5% J9 2 mg/cm^2, after 5 day treatment) was “inhibited” and the PASI scores ([7]; 0.5% J9 2 mg/cm^2, at day 4 to day 5) was “marked decreased”. The “IMQ-induced expression of IL-1(3 in lesional skin)” value ([7]; 0.5% J9 6 mg/cm^2, RT-qPCR) was “inhibited”, the “IMQ-induced expression of TNF-a in lesional skin” value ([7]; 0.5% J9 6 mg/cm^2, RT-qPCR) was “inhibited” and the IMQ-induced inflammation ([7]; 0.5% J9 6 mg/cm^2, after 5 day treatment) was “inhibited”. For the same compound, the PASI scores ([7]; 0.5% J9 6 mg/cm^2, at day 4 to day 5) was “marked decreased” and the “artemin (ARTN) expression (pruritus marker)” value [8] was “down-regulating”.

In the case of `C[C@H]1C[C@H]2[C@@H]3CCC4=CC(=O)C=C[C@]4(C)[C@@]3(F)[C@@H](O)C[C@]2(C)[C@@]1(O)C(=O)CCl` [clobetasol, reference compound], the skin thickness ([6]; clobetasol 0.05% 8 mg/cm^2, day 10, compared to sham control group) was “reduced skin thickness compared to sham control group” and the “IMQ-induced erythema, scaling and increase of skin thickness in lesional skin” value ([6]; clobetasol 0.05% 8 mg/cm^2 topical daily, after 5 day treatment) was “strongly inhibited”.
